Where two headings read alike, the source gives them in different places.
Assays:
[1] = in vivo; details: male, Sprague-Dawley, rat, po, 2 mg/kg
Experimental: (§4) The carotid arteries of each rat were cannulated with a polyethylene tube (Clay Adams, Franklin Lakes, NJ, USA) for blood sampling. Each rat was individually housed in a rat metabolic cage and allowed to recover from anesthesia for 4–5 h prior to the start of the experiment. […] SPN was suspended in dimethylsulfoxide:PEG400:distilled water (5:60:35, v/v/v) and administered by oral gavage at a dose of 75 mg/kg in a volume of 5 mL/kg. […] The blood samples were immediately centrifuged at 13,000× g for 5 min at 4 °C. The plasma samples were divided into two Eppendorf tubes by 50 μL and stored at −80 °C until LC-MS/MS analysis.
(§5) Briefly, 50 μL aliquots of plasma were extracted with 300 μL aliquots of acetonitrile containing chlorpropamide (internal standard), followed by LC-MS/MS (Shimadzu Corporation). Chromatographic separation was performed on a Phenomenex Luna C18 column (100 × 2.00 mm; 3.0 μm). The isocratic mobile phase consisted of 0.1% formic acid in distilled water (A) and 0.1% formic acid in acetonitrile (B) (45:55, v/v), with a flow rate of 0.3 mL/min. […] The data acquisition was computed using LabSolutions LCMS Ver.5.6 (Shimadzu Corporation).
(§6) Pharmacokinetic parameters were calculated by a non-compartmental analysis using WinNonlin Professional software (version 5.2, Pharsight Corp., Mountain View, CA, USA) that used the total area under the plasma concentration–time curve from time zero to infinity (AUC∞) or the last measured time (AUCt). The logarithmic trapezoidal rule was used during the declining plasma level phase and the linear trapezoidal rule was used for the rising plasma-level phase. The peak plasma concentration (Cmax) and time to reach Cmax (Tmax) were read directly from the experimental data. Statistically significant differences were recognized at p < 0.05.

[2] = male, Sprague-Dawley, rat, in vivo, po, 2 mg/kg
Experimental: as §4, §5, §6

[3] = cited from earlier work
[4] = tested on: CYP2C8; details: in humans; cited from earlier work
[5] = tested on: CYP1A2; details: not in vivo because of high plasma protein binding; cited from earlier work
[6] = Effects of SPN on the pharmacokinetics of diclofenac in rats; details: male, Sprague-Dawley, rat, plasma, po, 2 mg/kg, oral diclofenac 2 mg/kg, n = 6; for AUC(0-t): AUCt; for AUC(0-t) / AUC(0-inf) / Cmax / Tmax: rats; for Tmax: median (ranges); for half-life: t1/2, rats
Experimental: as §4, §5, §6

[7] = Bi-directional Caco-2 cell permeability; type: in vitro ADME; details: human, Caco-2; 10 μM, 2 h, n = 3
Experimental: Caco-2 cell permeability was assessed to predict the oral absorption of SPN. Cell culture and transport studies were performed as previously described. Briefly, for the bi-directional transport studies, the cells were seeded at a density of 1 × 10^5 cells/well, and the cell medium was replaced until they formed confluent monolayers. On the 25th day, the cell monolayers were washed with pre-warmed HBSS buffer. […] Before the experiment, the integrity of the cell monolayers was evaluated by measuring the transepithelial electrical resistance using a Millicell ohmmeter. After 2 h incubation at 37 °C, samples were withdrawn from both sides, respectively. All samples were stored at −80 °C until LC-MS/MS analysis, and all experiments were performed in triplicate.
The apparent permeability coefficient (Papp) was calculated using the following equation. Papp = (Vr/C0) × (1/A) × ([Drug]/t) where, Vr is the volume of medium in the receiver chamber, C0 is the donor compartment concentration at time zero, A is the area of the cell monolayer, t is the treatment time of the drug, and [Drug] is the drug concentration in the receiver chamber.

[8] = target: T1, CYP2E1 (Homo sapiens, UniProt P05181); test: Reversible CYP2E1 inhibition, cocktail assay (chlorzoxazone 6-hydroxylase) in human liver microsomes; type: biochemical
T1 construct: tissue Corning Life Sciences; host or cells: pooled human liver microsomes, 150 donors
T1 sequence (P05181 whole entry): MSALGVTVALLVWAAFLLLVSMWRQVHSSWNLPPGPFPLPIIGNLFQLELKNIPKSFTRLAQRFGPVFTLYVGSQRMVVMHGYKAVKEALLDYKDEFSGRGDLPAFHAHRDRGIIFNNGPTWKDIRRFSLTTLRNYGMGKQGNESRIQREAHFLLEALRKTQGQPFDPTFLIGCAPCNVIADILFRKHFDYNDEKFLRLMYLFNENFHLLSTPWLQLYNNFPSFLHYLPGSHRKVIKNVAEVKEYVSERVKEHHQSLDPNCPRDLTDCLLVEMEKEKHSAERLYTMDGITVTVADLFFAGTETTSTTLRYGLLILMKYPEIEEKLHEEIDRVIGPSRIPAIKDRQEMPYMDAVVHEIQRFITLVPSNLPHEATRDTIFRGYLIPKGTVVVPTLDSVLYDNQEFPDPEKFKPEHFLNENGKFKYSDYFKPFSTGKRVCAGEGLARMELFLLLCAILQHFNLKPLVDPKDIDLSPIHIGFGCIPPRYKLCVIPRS
Experimental: (§1) The inhibitory effects of SPN on CYP1A2, CYP2A6, CYP2B6, CYP2C8, CYP2C9, CYP2C19, CYP2D6, CYP2E1, and CYP3A4 were evaluated in pooled human liver microsomes through the use of specific CYP probe substrates (cocktail assay), as previously described with a slight modification. Concentrations of each CYP probe in Table 1 were used close to their reported Km values.
(§2) Briefly, a 90-µL incubation mixture, including pooled human liver microsomes (final concentration 0.1 mg/mL), 50 mM phosphate buffer (pH 7.4), each CYP-probe substrate cocktail set, and SPN (0–50 μM), was pre-incubated for 5 min at 37 °C. SPN was dissolved in methanol and spiked into the incubation mixture to a final concentration of 0.5% methanol. All P450-selective substrates (except coumarin due to solubility) were dissolved in methanol and serially diluted with methanol to the required concentrations, and the organic solvent was subsequently evaporated under a gentle stream of N2 gas to minimize the effects of organic solvents on CYP activities. On the other hand, coumarin dissolved in 50 mM phosphate buffer (pH 7.4) was directly added into the mixed tube. The reaction was initiated by adding 10-µL aliquot of NADPH-generating system (1.3 mM NADP^+, 3.3 mM glucose 6-phosphate, 3.3 mM MgCl2, and 0.4 unit/mL glucose-6-phosphate dehydrogenase) before 15 min incubation at 37 °C in a shaking water bath. […]
(§3) The IC50 values were calculated via nonlinear least-squares regression analysis from logarithmic plots of inhibitor concentration versus percentage of activity remaining after inhibition, using SigmaPlot (ver. 14.0; Systat Software Inc, Chicago, IL, USA). The Ki values were determined from the equations for a single substrate single inhibitor model and the software available in the SigmaPlot Enzyme Kinetics module. Competitive, non-competitive, uncompetitive, or mixed inhibition models were evaluated and ranked according to the best fit based on Akaike Information Criterion (AIC) values. […]

[9] = target: T2, CYP2A6 (Homo sapiens, UniProt P11509); test: Reversible CYP2A6 inhibition, cocktail assay (coumarin 7-hydroxylase) in human liver microsomes; type: biochemical
T2 construct: tissue Corning Life Sciences; host or cells: pooled human liver microsomes, 150 donors
T2 sequence (P11509 1-494): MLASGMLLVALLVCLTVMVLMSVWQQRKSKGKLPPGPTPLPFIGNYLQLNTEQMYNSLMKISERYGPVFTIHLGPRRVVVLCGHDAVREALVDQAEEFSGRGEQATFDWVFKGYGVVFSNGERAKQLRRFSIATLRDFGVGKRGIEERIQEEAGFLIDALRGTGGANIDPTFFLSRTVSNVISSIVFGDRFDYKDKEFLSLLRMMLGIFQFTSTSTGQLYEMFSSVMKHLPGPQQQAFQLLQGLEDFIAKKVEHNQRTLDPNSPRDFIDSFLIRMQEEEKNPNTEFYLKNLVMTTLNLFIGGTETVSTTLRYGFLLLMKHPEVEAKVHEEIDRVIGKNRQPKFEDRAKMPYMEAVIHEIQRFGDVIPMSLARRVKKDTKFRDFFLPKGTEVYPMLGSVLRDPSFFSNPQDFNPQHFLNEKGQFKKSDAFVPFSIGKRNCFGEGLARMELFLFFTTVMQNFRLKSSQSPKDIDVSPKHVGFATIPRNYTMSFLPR
Experimental: as §1, §2, §3

Which results are given for O=C(O)Cc1ccccc1Nc1c(Cl)cccc1Cl [Diclofenac]?
AUC(0-t) ([1]; AUCt): 1.06 µg·h/mL; AUC(0-inf) ([1]; AUC∞): 1.2 µg·h/mL; Cmax ([1]; Cmax): 0.882 ± 0.245 µg/mL; Tmax ([1]; Tmax, median (ranges)): 5 min; half-life ([1]; t1/2): 2.55 ± 1 h; AUCt [2]: 69.4 ± 2.98 µg·min/mL

For CC(C)(O)c1ccccc1CC[C@@H](SCC1(CC(=O)O)CC1)c1cccc(/C=C/c2ccc3ccc(Cl)cc3n2)c1 [Montelukast], which plasma protein binding ([3]; reference not given) is on record?
The plasma protein binding was > 99.7%.

What about the “effect on the pharmacokinetics of the CYP2C8 substrates pioglitazone and rosiglitazone” value [4] of the same compound?
The value was “no effect”.

For Cc1c(Cl)cccc1Nc1ccccc1C(=O)O [Tolfenamic acid], which plasma protein binding [3] is on record?
Its plasma protein binding is 99.7%.

What about the “CYP1A2 inhibition in vitro” value [5] of the same compound?
The value was “strongly inhibited CYP1A2 in vitro”.

Which AUC(0-t) ([6]; with oral SPN 75 mg/kg) does the source give for O=C(O)Cc1ccccc1Nc1c(Cl)cc(O)cc1Cl [4′-hydroxydiclofenac] here?
The AUC(0-t) was 0.742 µg·h/mL.

What about the AUC(0-t) ([6]; without SPN) of the same compound?
The AUC(0-t) was 0.747 µg·h/mL.

And the AUC(0-inf) ([6]; with oral SPN 75 mg/kg)?
Its AUC(0-inf) is 1.13 µg·h/mL.

And the AUC(0-inf) ([6]; without SPN)?
Its AUC(0-inf) is 1.14 µg·h/mL.

And the Cmax ([6]; with oral SPN 75 mg/kg)?
Its Cmax is 0.173 ± 0.0408 µg/mL.

And the Cmax ([6]; without SPN)?
The Cmax was 0.18 ± 0.0552 µg/mL.

What about the Tmax ([6]; with oral SPN 75 mg/kg) of the same compound?
The Tmax was 0.25 h.

And the Tmax ([6]; without SPN)?
Its Tmax is 0.167 h.

What about the half-life ([6]; with oral SPN 75 mg/kg) of the same compound?
The half-life was 4.93 ± 0.995 h.

What about the half-life ([6]; without SPN) of the same compound?
Its half-life is 4.63 ± 1.17 h.

With CC(C)NCC(O)COc1cccc2ccccc12 (centres unmarked) [propranolol, reference compound] as the compound, how does the Papp B→A at 2 h, 10 µM [7] read?
The Papp B→A at 2 h, 10 µM was 215 ± 21.9 nm/s.

With CCN(CC)C(=S)S [Diethyldithiocarbamate, reference compound] as the compound, how does the IC50 [8] read?
Its IC50 is 12 ± 3.67 µM.

For NCCc1c[nH]c2ccccc12 [Tryptamine, reference compound], which IC50 [9] is on record?
Its IC50 is 2.98 ± 0.635 µM.
